Assay results as given in patent EP3587416A1, “2-OXOPIPERIDIN-3-YL DERIVATIVES AND USE THEREOF” (Institut Univ. de Ciència i Tecnologia, S.A., priority 2018, dated 2020).
Several values for one entry are separate records, joined by “and”; a condition that tells them apart may be missing. Equal values may be shown once.

Legend:
[1] = target: T1, CNA-CF-PRIEIT interaction (Homo sapiens, UniProt Q08209); experiment: Fluorescence polarization assay, disruption of the CNA-CF-PRIEIT interaction (Example 20); assay type: binding; settings: 50 µM compound, 5 µM human CNAα, 30 nM CF-PRIEIT; mean of triplicates
T1 construct: human CNAα (amino acids 2-347)
Procedure: Compounds were analyzed for their potential to disrupt the interaction between the human catalytic domain of the calcineurin Aα subunit (CNAα) and the NFATc2-derived PRIEIT peptide. For this purpose we used Flourescence Polarization (FP) technique described in Mulero et al, 2009 (J. Biol. Chem.284:9394-9401). Briefly, to identify disruptors of the CNA-PRIEIT interaction, 5 µM of human CNAα (amino acids 2-347) is preincubated with 50 µM of each hit compound in OptiPlate black 384-well flat-bottom plates (PerkinElmer Life Sciences) for 15 min at room temperature. Then, carboxyfluorescein (CF)-tagged NFATc2-derived PRIEIT peptide (CF-PRIEIT, 30 nM) is added to each well and incubated for 15 more min at room temperature. Each compound has been analyzed once with triplicates. FP measurements were performed using a Victor™ X5 2030 Multilabel Reader (PerkinElmer Life Sciences) with excitation and emission wavelengths of 485 nm and 535 nm, respectively. The fluorescent polarization of the free CF-peptide was considered 0% binding and the binding of CNA to the CF-PRIEIT peptide as 100% binding. Accordingly, the capacity of the compound to disrupt CNA-CF-PRIEIT interaction was measured. None of them displace the CF-PRIEIT peptide from the CNA-PRIEIT interaction (Table 3). Interaction disruption values are less than 30%. […] Data is given as mean ± standard deviation (SD).

[2] = test system: NFATc activation in HEK 293T cells; experiment: 3xNFAT-luc dual-luciferase reporter assay of NFATc activation; assay type: cell-based, human; settings: Io/PMA/CaCl2 stimulation, inhibition at least at 100, 50 and 20 µM (Figure 1)
Procedure: • Figure 1. Effect of INK compounds on NFATc activation in HEK 293T cells. Cells were transfected with 3xNFAT-luc reporter gene, treated with each compound at 0 µM / 0.02 µM / 0.2 µM / 1 µM / 5 µM/ 20 µM / 50 µM /100 µM (increasing concentrations of the compounds are represented in the graph from left to right) for 2 hours. Then, cells were calcium stimulated with ionomycin (1 µM), PMA (20 nM) and CaCl2 (10 mM) for 4 hours and luciferase activity was analyzed following the dual luciferase reporter assay manufacters' indications and a luminometer (Victor X5 plate reader form Perin-Elmer). […] CN activity towards the RII peptide was analyzed in the absence (positive control of CN activity) or in the presence of each compound at 50 µM, or of 50 µM of LxVP peptide (positive control of CN activity inhibition). […]
To determine the ffect of INK compounds on NFATc activation, HEK 293T cells were transfected with 3xNFAT-luc reporter gene and Renilla-luc plasmid as control of gene transfection. […] Then, cells were treated with compounds of formula (I) at several concentrations for 2 hours and light units analyzed following manufacture's protocol of the dual-luciferase reporter assay system (Figure 1, Functional effect of pair related structure compounds on NFATc activation).

CN-PRIEIT interaction = target: T2, CN-PRIEIT interaction (Homo sapiens, UniProt Q08209); experiment: Fluorescence polarization competition binding assay, CF-SPRIEIT bound to CNA (Example 21); settings: 6 µM CNA, 30 nM CF-SPRIEIT, no competitor = 100%
T2 construct: recombinant human CNAD (amino acids 2-347) fused to glutathione S-transferase; GST (glutathione S-transferase); made in house; host or cells: bacteria
Procedure: INK compounds were analyzed for their ability to disrupt CN-PRIEIT interaction using a fluorescence polarization assay. This biochemical assay requires recombinant human CNAD (amino acids 2-347) fused to glutathione S-transferase (GST-CN), which was expressed and purified from bacteria, and a NFATc2-derived PRIEIT peptide labeled with carboxyfluorescein (CF), CF-PRIEIT. Competition binding assays of INK compounds on the interaction of CN with the CF-NFATc2-derived PRIEIT peptide were performed by fluorescence polarization. Briefly, 6 µM of CNA was incubated in the absence (positive control of interaction) or in the presence of 50 µM or 10 µM of competitor compound prior to addition of 30 nM of CF-SPRIEIT peptide. VIVIT peptide was included as positive control of interaction disruption ability. Data is represented as mean percentage of CF-SPRIEIT bound to CNA (± SEM) of 2 experiments performed in triplicates. Signal in the absence of competing peptide was considered as 100% of CF-SPRIEIT bound to CNA. Table 4: Functional effect of pair related structure compounds on NFATc activation

T2 sequence (Q08209 2-347): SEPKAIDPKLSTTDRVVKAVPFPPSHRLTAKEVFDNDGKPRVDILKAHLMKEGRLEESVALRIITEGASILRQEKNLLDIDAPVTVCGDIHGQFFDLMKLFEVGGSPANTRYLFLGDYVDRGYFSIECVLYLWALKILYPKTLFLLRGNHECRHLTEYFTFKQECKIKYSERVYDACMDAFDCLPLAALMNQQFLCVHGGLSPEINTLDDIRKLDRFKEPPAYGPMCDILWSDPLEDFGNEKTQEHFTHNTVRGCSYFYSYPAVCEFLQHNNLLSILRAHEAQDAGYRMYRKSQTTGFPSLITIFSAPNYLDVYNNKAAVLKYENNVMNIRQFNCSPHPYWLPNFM
T1 sequence (Q08209 2-347): as above

Structure (SMILES) | inhibition at 50 µM [1] [%] | further results
COc1ccccc1-c1ccc(N2CCCC(NS(=O)(=O)c3ccc4c(c3)OCO4)C2=O)c(F)c1 (stereo not shown) [IUCT-0462, N-(1-(3-fluoro-2'-methoxy-[1,1'-biphenyl]-4-yl)-2-oxopiperidin-3-yl)benzo[d][1,3]dioxole-5-sulfonamide] | 25.7 | 
COc1ccccc1-c1ccc(N2CCCC(NS(=O)(=O)c3c(C)noc3C)C2=O)c(F)c1 (stereo not shown) [IUCT-0461, N-(1-(3-fluoro-2'-methoxy-[1,1'-biphenyl]-4-yl)-2-oxopiperidin-3-yl)-3,5-dimethylisoxazole-4-sulfonamide] | 11.1 | 
COc1ccccc1-c1ccc(N2CCCC(NS(=O)(=O)c3cc4ccccc4o3)C2=O)c(F)c1 (stereo not shown) [IUCT-0464, N-(1-(3-fluoro-2'-methoxy-[1,1'-biphenyl]-4-yl)-2-oxopiperidin-3-yl)benzofuran-2-sulfonamide] | 25.8 | NFATc activation [2]: strongly inhibits; Relative interaction (%) Mean (CN-PRIEIT interaction; 10 µM competitor): 93,8%; Relative interaction (%) Sample at 10 µM (CN-PRIEIT interaction; 10 µM competitor, single replicate): 96,8% and 92,3% and 92,4%; Relative interaction (%) Mean (CN-PRIEIT interaction; 50 µM competitor): 83,2%; Relative interaction (%) Sample at 50 µM (CN-PRIEIT interaction; 50 µM competitor, single replicate): 79,0% and 87,7% and 82,9%
COc1ccccc1-c1ccc(N2CCCC(NS(=O)(=O)c3cc(Cl)c(Cl)s3)C2=O)c(F)c1 (stereo not shown) [IUCT-0460, 4,5-Dichloro-N-(1-(3-fluoro-2'-methoxy-[1,1'-biphenyl]-4-yl)-2-oxopiperidin-3-yl)thiophene-2-sulfonamide] | 6.53 | 
COc1ccccc1-c1ccc(N2CCCC(NS(=O)(=O)c3ccc(-c4ccccn4)s3)C2=O)c(F)c1 (stereo not shown) [IUCT-0463, N-(1-(3-fluoro-2'-methoxy-[1,1'-biphenyl]-4-yl)-2-oxopiperidin-3-yl)-5-(pyridin-2-yl)thiophene-2-sulfonamide] | 15.8 | 
CCOC(=O)CN(C1CCCN(c2ccc(-c3ccccc3OC)cc2F)C1=O)S(=O)(=O)c1ccc(-c2ccccn2)s1 (stereo not shown) [IUCT-0469, Ethyl N-(1-(3-fluoro-2'-methoxy-[1,1'-biphenyl]-4-yl)-2-oxopiperidin-3-yl)-N-((5-(pyridin-2-yl)thiophen-2-yl)sulfonyl)glycinate] | 29.3 | 
CCOC(=O)CN(C1CCCN(c2ccc(-c3ccccc3OC)cc2F)C1=O)S(=O)(=O)c1ccc2c(c1)OCO2 (stereo not shown) [IUCT-0466, Ethyl N-(benzo[d][1,3]dioxol-5-ylsulfonyl)-N-(1-(3-fluoro-2'-methoxy-[1,1'-biphenyl]-4-yl)-2-oxopiperidin-3-yl)glycinate] | 16.7 | 
COc1ccccc1-c1ccc(N2CCCC(N(CC#N)S(=O)(=O)c3cc(Cl)c(Cl)s3)C2=O)c(F)c1 (stereo not shown) [IUCT-0465, 4,5-Dichloro-N-(cyanomethyl)-N-(1-(3-fluoro-2'-methoxy-[1,1'-biphenyl]-4-yl)-2-oxopiperidin-3-yl)thiophene-2-sulfonamide] | 13.8 | 
